Data from US20110263557A1, “COMPOUNDS AND COMPOSITIONS AS MODULATORS OF GPR119 ACTIVITY” (IRM LLC, priority 2008, published 2011).

target: T1, human GPR119 (Homo sapiens, UniProt Q8TDV5); assay: Cyclic AMP assay in stable cell line (Flp-In-CHO-hGPR119, HTRF); type: cell-based; conditions: Flp-In-CHO-hGPR119 cells, intracellular cAMP by HTRF, 1 mM IBMX, 37° C. for 30 minutes; read-out: CHO-GPR119-HTRF (3158)
T1 construct: expressed in transfected cells
T1 sequence (Q8TDV5 1-335): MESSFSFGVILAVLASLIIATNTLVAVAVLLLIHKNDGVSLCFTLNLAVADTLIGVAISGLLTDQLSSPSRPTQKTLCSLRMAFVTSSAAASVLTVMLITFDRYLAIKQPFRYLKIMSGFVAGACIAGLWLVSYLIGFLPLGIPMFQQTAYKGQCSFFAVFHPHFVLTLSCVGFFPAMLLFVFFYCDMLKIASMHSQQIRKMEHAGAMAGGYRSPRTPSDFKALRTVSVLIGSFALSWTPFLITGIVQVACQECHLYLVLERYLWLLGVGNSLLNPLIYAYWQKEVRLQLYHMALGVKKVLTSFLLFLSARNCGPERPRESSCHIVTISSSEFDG
Method: Flp-In-CHO cells (Invitrogen, Cat.#R758-07) are maintained in Ham's F12 medium supplemented with 10% fetal bovine serum, 1% antibiotic mixture and 2 mM L-glutamine. The cells are transfected with a DNA mixture containing human GPR119 in pcDNA5/FRT vector and the pOG44 vector (1:9) using Fugene6 (Roche), according to the manufacturer's instruction. After 48 hours, the medium is changed to medium supplemented with 400 μg/ml hygromycin B to initiate the selection of stably transfected cells.
To test the activity of compounds of the invention, Flp-In-CHO-hGPR119 cells are harvested and resuspended in DMEM plus 3% lipid-depleted fetal bovine serum. Forth μl of cells are plated in 384 well plates at a density of 15,000 cells/well. IBMX (3-isobutyl-1-methyl-xanthine) is added to the cells to a final concentration of 1 mM, followed by the addition of 500 nl of the compound to be tested. The cells are incubated at 37° C. for 30 minutes. Equal volume (20 μl) of the HTRF reagents, anti-cAMP-Cryptate and cAMP-XL665, are added to the cells. The plates are incubated at room temperature for 1 hour and read on a HTRF reader according to the manufacturer's instruction.
Compounds of Formula I, in free form or in pharmaceutically acceptable salt form, produced a concentration-dependent increase in intracellular cAMP level. […] For example, the following tables show some EC50 data for a representative sample of compounds of the invention: […]

Compared with `CCc1cnc(N2CCC(Oc3ccc(CN4CCN(S(C)(=O)=O)CC4)cc3)CC2)nc1` [Example A1], `CCc1cnc(N2CCC(Oc3ccc(CN4CCN(S(C)(=O)=O)CC4)nc3)CC2)nc1` [Example A13, 5-ethyl-2-(4-(6-((4-(methylsulfonyl)piperazin-1-yl)methyl)pyridin-3-yloxy)piperidin-1-yl)pyrimidine] is 15-fold higher in EC50: 56 nM for the first, 867 nM for the second.

Going from `CCc1cnc(N2CCC(Oc3ccc(CN4CCN(S(C)(=O)=O)CC4)c(C)c3)CC2)nc1` [Example A2, 5-ethyl-2-(4-(3-methyl-4-((4-(methylsulfonyl)piperazin-1-yl)methyl)phenoxy)piperidin-1-yl)pyrimidine] to `CCc1cnc(N2CCC(Oc3ccc(CN4CCN(S(C)(=O)=O)CC4)cc3F)CC2)nc1` [Example A6, 5-ethyl-2-(4-(2-fluoro-4-((4-(methylsulfonyl)piperazin-1-yl)methyl)phenoxy)piperidin-1-yl)pyrimidine], the EC50 falls from 203 nM to 20 nM (10-fold). The second is the more potent here.

Going from `CCc1cnc(N2CCC(Oc3ccc(CN4CCN(S(C)(=O)=O)CC4)cc3Br)CC2)nc1` [Example A8, 2-(4-(2-bromo-4-((4-(methylsulfonyl)piperazin-1-yl)methyl)phenoxy)piperidin-1-yl)-5-ethylpyrimidine] to `CCc1cnc(N2CCC(Oc3ccc(CN4CCN(S(C)(=O)=O)CC4)cc3C(=O)OC)CC2)nc1` [Example A14, methyl 2-(1-(5-ethylpyrimidin-2-yl)piperidin-4-yloxy)-5-((4-(methylsulfonyl)piperazin-1-yl)methyl)benzoate], the EC50 rises from 5 nM to 313 nM (63-fold). The first is the more potent here.

Going from `CC1(OC(=O)N2CCC(Oc3ccc(CN4CCN(S(C)(=O)=O)CC4)cc3)CC2)CC1` [Example B2, 1-Methylcyclopropyl 4-(4-((4-(methylsulfonyl)piperazin-1-yl)methyl)phenoxy)piperidine-1-carboxylate] to `CC1(OC(=O)N2CCC(Oc3ccc(CN4CCN(S(C)(=O)=O)CC4)cc3Cl)CC2)CC1` [Example B3, 1-Methylcyclopropyl 4-(2-chloro-4-((4-(methylsulfonyl)piperazin-1-yl)methyl)phenoxy)piperidine-1-carboxylate], the EC50 falls from 127 nM to 22 nM (5.8-fold). The second is the more potent here.

Compared with `CS(=O)(=O)N1CCN(Cc2ccc(OC3CCN(c4ccc(C(F)(F)F)cn4)CC3)cc2)CC1` [Example B6, 1-(methylsulfonyl)-4-(4-(1-(5-(trifluoromethyl)pyridin-2-yl)piperidin-4-yloxy)benzyl)piperazine], `CN(C)C(=O)c1cnc(N2CCC(Oc3ccc(CN4CCN(S(C)(=O)=O)CC4)cc3Cl)CC2)nc1` [Example B13, 2-(4-(2-chloro-4-((4-(methylsulfonyl)piperazin-1-yl)methyl)phenoxy)piperidin-1-yl)-N,N-dimethylpyrimidine-5-carboxamide] is 2.1-fold higher in EC50: 220 nM for the first, 465 nM for the second. The first is the more potent here.

`CC(C)c1noc(N2CCC(Oc3ccc(CN4CCN(S(C)(=O)=O)CC4)cc3Cl)CC2)n1` [Example B11, 5-(4-(2-chloro-4-((4-(methylsulfonyl)piperazin-1-yl)methyl)phenoxy)piperidin-1-yl)-3-isopropyl-1,2,4-oxadiazole] and `Cn1nnc(-c2cnc(N3CCC(Oc4ccc(CN5CCN(S(C)(=O)=O)CC5)cc4Cl)CC3)nc2)n1` [Example B17, 2-(4-(2-Chloro-4-((4-(methylsulfonyl)piperazin-1-yl)methyl)phenoxy)piperidin-1-yl)-5-(2-methyl-2H-tetrazol-5-yl)pyrimidine] are within 1.5-fold of each other in EC50: 13 nM for the first, 9 nM for the second.

`CCc1cnc(N2CCC(Oc3ccc(CN4CCN(S(C)(=O)=O)CC4)cc3CCCOC)CC2)nc1` [Example C2] and `CCc1cnc(N2CCC(Oc3ccc(CN4CCN(S(C)(=O)=O)CC4)cc3NCCOC)CC2)nc1` [Example C9, 2-(1-(5-Ethylpyrimidin-2-yl)piperidin-4-yloxy)-N-(2-methoxyethyl)-5-((4-(methylsulfonyl)piperazin-1-yl)methyl)aniline] are within 1.5-fold of each other in EC50: 187 nM for the first, 136 nM for the second.

First: CCc1cnc(N2CCC(Oc3ccc(CN4CCN(S(C)(=O)=O)CC4)cc3-c3ccn[nH]3)CC2)nc1 [Example C5, 5-ethyl-2-(4-(4-((4-(methylsulfonyl)piperazin-1-yl)methyl)-2-(1H-pyrazol-5-yl)phenoxy)piperidin-1-yl)pyrimidine]
Second: CCc1cnc(N2CCC(Oc3ccc(CN4CCN(S(=O)(=O)CCCO)CC4)cc3Cl)CC2)nc1 [Example D1, 3-(4-(3-Chloro-4-(1-(5-ethylpyrimidin-2-yl)piperidin-4-yloxy)benzyl)piperazin-1-ylsulfonyl)propan-1-ol]
The EC50 of the first is 5.5-fold higher: 44 nM for the first, 8 nM for the second.

First: CCc1cnc(N2CCC(Oc3ccc(CC4CCN(S(C)(=O)=O)CC4)cc3Cl)CC2)nc1 [Example E2, 2-(4-(2-Chloro-4-((1-(methylsulfonyl)piperidin-4-yl)methyl)phenoxy)piperidin-1-yl)-5-ethylpyrimidine]
Second: CCc1cnc(N2CCC(Oc3ccc(CN4CCN(S(C)(=O)=O)CC4=O)cc3Cl)CC2)nc1 [Example E4, 1-(3-Chloro-4-(1-(5-ethylpyrimidin-2-yl)piperidin-4-yloxy)benzyl)-4-(methylsulfonyl)piperazin-2-one]
The EC50 of the first is 270-fold lower: 3 nM for the first, 812 nM for the second.

Going from `CCc1cnc(N2CCC(Oc3ccc(CN4CCC(c5nnn(C)n5)CC4)cc3Cl)CC2)nc1` [Example E12, 2-(4-(2-chloro-4-((4-(2-methyl-2H-tetrazol-5-yl)piperidin-1-yl)methyl)phenoxy)piperidin-1-yl)-5-ethylpyrimidine] to `CCc1cnc(N2CCC(Oc3ccc(CN4CC(N(C)S(C)(=O)=O)C4)cc3Cl)CC2)nc1` [Example E15, N-(1-(3-Chloro-4-(1-(5-ethylpyrimidin-2-yl)piperidin-4-yloxy)benzyl)azetidin-3-yl)-N-methylmethanesulfonamide], the EC50 falls from 2680 nM to 114 nM (24-fold). The second is the more potent here.
